Active and inactive are the calls of the source.
Assays:
[1] = test system: Ulva; assay: Antifouling activity against Ulva conglobata spores assessed as germination and attachment rate at 2.5 to 10.0 ppm; assay type: functional, organism-based
[2] = test system: Ulva; assay: Toxicity against Ulva conglobata spores at 50 ppm; assay type: organism-based; conditions: in vivo
[3] = test system: Anagnostidinema amphibium; assay: Antimicroalgal activity against Oscillatoria amphibia at 1.0 to 2.5 ppm; assay type: functional, organism-based
[4] = test system: Skeletonema costatum; assay: Antimicroalgal activity against Skeletonema costatum at 1.0 to 2.5 ppm; assay type: functional, organism-based
[5] = test system: Prorocentrum micans; assay: Antimicroalgal activity against Prorocentrum micans at 1.0 to 2.5 ppm; assay type: functional, organism-based
[6] = test system: Brachiomonas submarina; assay: Antimicroalgal activity against Brachiomonas submarina at 1.0 to 2.5 ppm; assay type: functional, organism-based
[7] = test system: Staphylococcus aureus; assay: Antibacterial activity against Staphylococcus aureus; assay type: functional, organism-based
[8] = test system: Salinivibrio costicola; assay: Antibacterial activity against sVibrio costicola; assay type: functional, organism-based
[9] = test system: Escherichia coli; assay: Antibacterial activity against Escherichia coli; assay type: functional, organism-based
[10] = test system: Bacillus subtilis; assay: Antibacterial activity against Bacillus subtilis; assay type: functional, organism-based

Measured: Activity

C/C(=C\C[n+]1cn(C)c2ncnc(N)c21)CC[C@@]1(C)C2=CCCC(C)(C)[C@@H]2CC[C@@H]1C.[Cl-]
Toxic: [2]
inactive: [7] | [8] | [9] | [10]
active: all other assays above
